Experimental data reported in publication PMC10610545, “Preclinical Evaluation of an Imidazole-Linked Heterocycle for Alzheimer’s Disease” (Pharmaceutics, 2023).
Where a name gives a salt, the structure may show the parent alone.

Legend:
[1] = target: imidazoline I2 receptors (I2-IR); assay: Competition binding against [3H]2-BFI, membranes from post-mortem human frontal cortex; conditions: for [3H]-2-BFI I2 pKi (One Site): monophasic fit; for Selectivity I2/α2: antilog (pKi I2-IR − pKi α2-AR); for [3H]-2-BFI I2 pKi (Two Sites), high affinity (pKiH) / [3H]-2-BFI I2 pKi (Two Sites), low affinity (pKiL): two-site model; for [3H]-2-BFI I2 pKi (Two Sites), high affinity (pKiH): high-affinity site; for [3H]-2-BFI I2 pKi (Two Sites), low affinity (pKiL): low-affinity site
Description: (§1) The inhibition constant (Ki) for each compound was obtained and is expressed as the corresponding pKi. The selectivity for these two receptors was expressed by the I2/α2 index, calculated as the antilogarithm of the […] between pKi values for I2-IR and pKi values for α2-AR.
(§2) Preparation of cellular membranes.
(§3) Human brain samples were obtained at autopsy in the Basque Institute of Legal Medicine, Bilbao, Spain. Samples from the prefrontal cortex (Brodmann’s area 9) were dissected at the time of autopsy and immediately stored at -70 °C until assay. The study was developed in compliance with policies of research and ethical review boards for postmortem brain studies.
(§4) To obtain cellular membranes (P2 fraction) the different samples were homogenized using an ultraturrax in 10 volumes of homogenization buffer (0.25 M sucrose, 5 mM Tris–HCl, pH 7.4).
(§5) The crude homogenate was centrifuged for 5 min at 1000 g (4 °C) and the supernatant was centrifuged again for 10 min at 40,000 g (4 °C). The resultant pellet was washed twice in 5 volumes of homogenization buffer and recentrifuged in similar conditions. Protein content was measured according to the method of Bradford using BSA as standard.
(§6) Competition Binding Assays.
(§7) The pharmacological activity of the compounds was evaluated through competition binding studies against the I2-IR selective radioligand [3H]2-BFI or the α2-adrenergic receptor selective radioligand [3H]RX821002. Specific binding was measured in 0.25 mL aliquots (50 mM Tris-HCl, pH 7.5) containing 100 µg of membranes, which were incubated in 96-well plates either with […]
(§8) Incubations were terminated by separating free ligand from bound ligand by rapid filtration […]
(§9) counted for radioactivity by liquid scintillation spectrometry using a MicroBeta TriLux counter (PerkinElmer). Specific binding was determined and plotted as a function of the compound concentration. Nonspecific binding was determined in the presence of idazoxan (10–5 M), a compound with well stablished affinity for I2-IR and α2-adrenergic receptors, in [3H]2-BFI and [3H]RX821002 assays. To obtain the inhibition constant (Ki) analyses of competition experiments were performed by nonlinear regression using the GraphPad Prism program. Ki values were normalized to pKi values. I2-IR/α2 selectivity index was calculated as the antilogarithm of the difference between pKi values for I2-IR and pKi values for α2-ARs.

[2] = PAMPA-BBB permeation assay; type: in vitro ADME, porcine; conditions: pig, PBS/EtOH (70:30), mean ± SD, read-out: Permeability Pe
Procedure: In vitro Blood-Brain Barrier Permeation Assay
To evaluate the brain penetration of the different compounds, a parallel artificial membrane permeation assay for blood-brain barrier was used, following the method described by Di et al.1 The in vitro permeability (Pe) of fourteen commercial drugs (see Table S1) through lipid extract of porcine brain membrane together with the test compounds were determined. Commercial drugs and assayed compounds were tested using a mixture of PBS:ETOH (70:30). Assay validation was made by comparing the experimental permeability with the reported values of the commercial drugs by bibliography and lineal correlation between experimental and reported permeability of the fourteen commercial drugs using the parallel artificial membrane permeation […]
From this equation and taking into account the limits established by Di et al. for BBB permeation, we established the ranges of permeability […]
predictive penetration in the CNS used as references.
1 Di, L.; Kerns, E. H.; Fan, K.; McConnell, O. J.; and Carter, G. T. High throughput artificial membrane permeability assay for blood-brain barrier.

[3] = target: α2-adrenergic receptor (α2-AR); assay: Competition binding against [3H]RX821002, membranes from post-mortem human frontal cortex
Description: as §1, §2, §3, §4, §5, §6, §7, §8, §9

Structure (SMILES) | [3H]-2-BFI I2 pKi (One Site) [1] | Papp [2] [×10⁻⁶ cm/s] | [3H]-RX821002 α2 pKi [3] | pKi (exp) I2 ([1]; Table S2, new ligands and known I2-IR ligands) | pKi (exp) α2 ([3]; Table S3, new ligands and known I2-IR ligands) | Selectivity I2/α2 [1] | Ki ([1]; corresponds to pKiH, read-out: Ki of the high-affinity I2 site) [nM] | [3H]-2-BFI I2 pKi (Two Sites), high affinity (pKiH) [1] | [3H]-2-BFI I2 pKi (Two Sites), low affinity (pKiL) [1]
C(=C\c1ccccc1)/C1=NCCN1 [Tracizoline, reference compound] |  |  |  | 7.580 | 4.330 |  |  |  | 
c1ccc(-c2ncc3cc(-n4ccnc4)ccc3n2)cc1 [CR4056] | 5.95 ± 0.11 |  |  |  |  | 1995 |  |  | 
c1ccc2oc(C3=NCCN3)cc2c1 [Compound 2-BFI, 2-(2-benzofuranyl)-2-imidazoline] | 8.31 ± 0.13 |  | 4.58 ± 0.22 |  |  | 5370 | 1 | 9.08 ± 0.22 | 7.15 ± 0.31
Cl.c1ccc2[nH]c(-n3ccnc3)cc2c1 [LSL29, 2-Imidazol-1-yl-1H-indole hydrochloride] | 4.57 ± 0.23 | 10.8 ± 0.4 | 4.99 ± 0.18 |  |  |  |  | 8.54 ± 0.71 | 4.09 ± 0.22
c1ccc2c(c1)OCC(C1=NCCN1)O2 (stereo not drawn) [Idazoxan] | 7.41 ± 0.63 |  | 7.92 ± 0.07 |  |  |  |  | 7.87 ± 0.74 | 5.76 ± 0.57

Now from value to compound:

[3H]-2-BFI I2 pKi (One Site) [1] | Papp [2] [×10⁻⁶ cm/s] | [3H]-RX821002 α2 pKi [3] | pKi (exp) I2 ([1]; Table S2, new ligands and known I2-IR ligands) | pKi (exp) α2 ([3]; Table S3, new ligands and known I2-IR ligands) | Selectivity I2/α2 [1] | Ki ([1]; corresponds to pKiH, read-out: Ki of the high-affinity I2 site) [nM] | [3H]-2-BFI I2 pKi (Two Sites), high affinity (pKiH) [1] | [3H]-2-BFI I2 pKi (Two Sites), low affinity (pKiL) [1] | Structure (SMILES)
5.24 ± 0.12 | 5.8 ± 0.2 | 5.32 ± 0.24 |  |  |  |  |  |  | Cl.c1ccc2nc(-c3ncc[nH]3)ccc2c1 [LSL42, 2-(Quinoline-2-yl)-1H-imidazole hydrochloride]
6.10 ± 0.25 |  | 3.97 ± 0.25 |  |  |  |  |  |  | c1ccc2c(c1)OCC(c1ncc[nH]1)O2 (stereo not drawn) [LSL39, 2-(2,3-Dihydrobenzo[1, 4]dioxin-2-yl)-1H-imidazole hydrochloride]
5.49 ± 0.14 | 16.2 ± 0.9 | 5.24 ± 0.26 |  |  |  |  |  |  | Cl.c1ccc2nc(-n3ccnc3)ccc2c1 [LSL35, 1-(Quinoline-2-yl)-1H-imidazole hydrochloride]
